{"source": "paper PMC4894664", "about": "(Cancer cell, 2015)", "key": {"[1]": {"system": "A375 (BRAF V600E) cells", "experiment": "p-ERK in A375 cells", "format": "cell-based"}, "[2]": {"system": "SK-MEL-239 parental cells (BRAF V600E)", "experiment": "p-ERK inhibition in SK-MEL-239 parental cells", "format": "cell-based", "settings": "read-out: concentration inhibiting monomer driven signaling (p-ERK IC50)"}, "[3]": {"system": "BRAF V600E tumor cells", "experiment": "ERK phosphorylation after drug washout in BRAF V600E tumor cells", "format": "cell-based", "settings": "1 hr exposure then washout"}, "[4]": {"system": "SK-MEL-239 C4 clone (which expresses p61 BRAF V600E)", "experiment": "p-ERK inhibition in SK-MEL-239 C4 clone", "format": "cell-based", "settings": "read-out: concentration inhibiting dimer signaling (p-ERK IC50)"}, "[5]": {"system": "SK-MEL-30 (NRAS Q61K) cells", "experiment": "p-ERK in SK-MEL-30 cells, with and without drug washout", "format": "cell-based"}, "[6]": {"system": "RAF mutants that constitutively dimerize", "experiment": "ERK signaling in SKBR3 cells expressing RAF mutants that constitutively dimerize", "format": "cell-based", "settings": "SKBR3, 1 μM drug, 1 hr"}, "[7]": {"system": "JVM-3, a BRAF K601N CLL cell line", "experiment": "ERK signaling and proliferation of JVM-3", "format": "cell-based"}, "[8]": {"system": "BRAF V600E T529N or p61 BRAF V600E T529N", "experiment": "ERK signaling in cells expressing BRAF gatekeeper mutants", "format": "cell-based", "settings": "cells expressing BRAF V600E T529N or p61 BRAF V600E T529N (gatekeeper mutation)"}, "[9]": {"system": "SK-MEL-239 tumors", "experiment": "SK-MEL-239 subcutaneous xenograft", "format": "in vivo, nude mice", "settings": "for growth of SK-MEL-239 tumors: daily for 32 days, 75 mg/kg vemurafenib or 100 mg/kg BGB659; for ERK signaling in SK-MEL-239 tumors: tumor extracts, Western blot, 75 mg/kg vemurafenib or 100 mg/kg BGB659 daily"}, "[10]": {"system": "SK-MEL-239 C4 tumors (p61 V600E)", "experiment": "SK-MEL-239 C4 subcutaneous xenograft", "format": "in vivo, nude mice", "settings": "for activity against SK-MEL-239 C4 tumors (growth): daily for 32 days, 75 mg/kg vemurafenib or 100 mg/kg BGB659"}, "[11]": {"target": "BRAF/CRAF heterodimers (Homo sapiens, UniProt P04049+P15056)", "experiment": "Induction of BRAF/CRAF heterodimers", "format": "cell-based", "settings": "HeLa and two melanoma cell lines with mutant NRAS, 1 hr"}, "[12]": {"target": "p61 BRAF V600E (Homo sapiens, UniProt P15056, DEL169-380/V600E)", "experiment": "ERK signaling", "format": "cell-based", "settings": "SKBR3, drug 1 hr"}, "[13]": {"system": "SKBR3 breast cancer (HER2-activated wild type RAS)", "experiment": "RAS activity and p-ERK in SKBR3 cells", "format": "cell-based"}, "[14]": {"system": "SK-MEL-2 melanoma (mutant NRAS Q61R)", "experiment": "p-ERK in SK-MEL-2 cells", "format": "cell-based", "settings": "1 hr"}, "[15]": {"system": "second site of the WT RAF dimer in SK-MEL-30 NRAS mutant cells", "format": "cell-based", "settings": "p-ERK; first site occupied by LGX818"}, "[16]": {"experiment": "Tolerability of daily dosing in mice", "format": "in vivo", "settings": "100 mg/kg given daily"}, "[17]": {"system": "A375 in which NRAS Q61K is expressed", "experiment": "p-ERK in A375 cells expressing NRAS Q61K", "format": "cell-based", "settings": "A375 with mutant NRAS overexpressed, 1 hr"}, "[18]": {"system": "A549 lung cancer (mutant KRAS G12S)", "experiment": "p-ERK in A549 cells", "format": "cell-based", "settings": "1 hr"}, "[19]": {"settings": "SK-MEL-30 (mutant NRAS, WT RAF)"}, "[20]": {"settings": "SK-MEL-30, 3 μM for 1 hr then washout"}}, "data": [{"smiles": "COC(=O)N[C@@H](C)CNc1nccc(-c2cn(C(C)C)nc2-c2cc(Cl)cc(NS(C)(=O)=O)c2F)n1", "note": "[LGX818]", "values": [{"measurement": "p-ERK after drug washout", "setting": "[1]; A375, 3 μM for 1 hr then washout", "value": "remained inhibited in A375 for up to 24 hr"}, {"measurement": "IC50", "setting": "[2]", "value": 14, "unit": "nM"}, {"measurement": "ERK phosphorylation 1 hr after washout of the drug", "setting": "[3]", "value": "remains inhibited"}, {"measurement": "IC50", "setting": "[4]", "value": 287, "unit": "nM"}, {"measurement": "concentration of peak induction of ERK", "setting": "[5]; [19]", "value": 100, "unit": "nM"}, {"measurement": "concentrations causing concentration-dependent inhibition of ERK signaling", "setting": "[5]; [19]", "value": "300 to 3000", "unit": "nM"}, {"measurement": "half-time of p-ERK rise after drug washout", "setting": "[5]; [20]", "value": 10, "unit": "min"}, {"measurement": "p-ERK 24 hr after washout relative to basal", "setting": "[5]; [20]", "value": "three fold elevated compared to basal"}, {"measurement": "maximum p-ERK after drug washout relative to basal", "setting": "[5]; SK-MEL-30, 3 μM for 1 hr then washout, maximum approximately 1 hr after washout", "value": "about five times higher than basal"}]}, {"smiles": "CCCS(=O)(=O)Nc1ccc(F)c(C(=O)c2c[nH]c3ncc(-c4ccc(Cl)cc4)cc23)c1F", "note": "[vemurafenib]", "values": [{"measurement": "ERK phosphorylation 1 hr after washout of the drug", "setting": "[3]", "value": "returned to pre-exposure levels"}, {"measurement": "sensitivity of ERK signaling driven by RAF mutants that constitutively dimerize", "setting": "[6]", "value": "resistant"}, {"measurement": "effect on ERK signaling and proliferation of JVM-3", "setting": "[7]", "value": "resistant"}, {"measurement": "effect on ERK signaling", "setting": "[5]; [19]", "value": "activates ERK signaling"}, {"measurement": "ERK signaling resistant to the drug", "setting": "[8]", "value": "resistant"}, {"measurement": "growth of SK-MEL-239 tumors", "setting": "[9]", "value": "effectively inhibited"}, {"measurement": "ERK signaling in SK-MEL-239 tumors", "setting": "[9]", "value": "potently inhibited"}, {"measurement": "activity against SK-MEL-239 C4 tumors (growth)", "setting": "[10]", "value": "only the latter had activity"}]}, {"smiles": "CC(C)(C)c1nc(-c2cccc(NS(=O)(=O)c3c(F)cccc3F)c2F)c(-c2ccnc(N)n2)s1", "note": "[dabrafenib]", "values": [{"measurement": "induction of BRAF/CRAF heterodimers", "setting": "[11]", "value": "equivalent and much greater than that caused by vemurafenib"}, {"measurement": "fold higher concentrations required to inhibit ERK driven by p61 V600E dimers than by p61 V600E R509H monomers", "setting": "[12]", "value": "same relative difference"}]}, {"smiles": "CS(=O)(=O)CCNCc1ccc(-c2ccc3ncnc(Nc4ccc(OCc5cccc(F)c5)c(Cl)c4)c3c2)o1", "note": "[lapatinib]", "values": [{"measurement": "RAS activity and ERK signaling", "setting": "[13]; SKBR3, 1 hr exposure", "value": "potently suppressed"}]}, {"smiles": "CC(C)(N)c1cc(C(=O)N[C@@H]2CCc3ccc(Oc4ccnc5c4CCC(=O)N5)cc3C2)cc(C(F)(F)F)c1", "note": "[BGB659]", "values": [{"measurement": "decline of ERK phosphorylation", "setting": "[14]; SK-MEL-2, 1 μM", "value": 40, "unit": "%"}, {"measurement": "ERK phosphorylation at 10 μM", "setting": "[14]; SK-MEL-2, 10 μM", "value": "approached complete inhibition"}, {"measurement": "inhibition of ERK signaling at 1 μM", "setting": "[1]; A375, 1 μM, 1 hr", "value": "almost complete inhibition"}, {"measurement": "IC50", "setting": "[1]; read-out: IC50 for inhibition of ERK signaling, A375, 1 hr", "value": "100 to 300", "unit": "nM"}, {"measurement": "potency for inhibition of monomers and the second site of dimers", "setting": "[15]", "value": "100 to 300", "unit": "nM"}, {"measurement": "sensitivity of ERK signaling driven by RAF mutants that constitutively dimerize", "setting": "[6]", "value": "sensitive"}, {"measurement": "ERK signaling resistant to the drug", "setting": "[8]", "value": "resistant"}, {"measurement": "weight loss or other toxicity", "setting": "[16]", "value": "unassociated with weight loss or other obvious toxicity"}, {"measurement": "inhibition of ERK signaling at 1 μM", "setting": "[17]", "value": "almost complete inhibition"}, {"measurement": "growth of SK-MEL-239 tumors", "setting": "[9]", "value": "effectively inhibited"}, {"measurement": "ERK signaling in SK-MEL-239 tumors", "setting": "[9]", "value": "potently inhibited"}, {"measurement": "activity against SK-MEL-239 C4 tumors (growth)", "setting": "[10]", "value": "had activity"}, {"measurement": "ERK signaling in SK-MEL-239 C4 tumors", "setting": "[10]; tumor extracts, Western blot, 75 mg/kg vemurafenib or 100 mg/kg BGB659 daily", "value": "only BGB659 inhibited"}, {"measurement": "ERK phosphorylation at 1 μM", "setting": "[18]; A549, 1 μM", "value": "declined to pretreatment levels"}, {"measurement": "ERK phosphorylation at 10 μM", "setting": "[18]; A549, 10 μM", "value": "some residual activity remained"}, {"measurement": "decline of ERK phosphorylation", "setting": "[13]; SKBR3, 1 μM, 1 hr", "value": 40, "unit": "%"}, {"measurement": "ERK phosphorylation at 10 μM", "setting": "[13]; SKBR3, 10 μM, 1 hr", "value": "approached complete inhibition"}]}]}
